Laboratory results reported in patent US20220315578A1, “BRD9 BIFUNCTIONAL DEGRADERS AND THEIR METHODS OF USE” (NOVARTIS AG, priority 2019, published 2022).

Target: T1, BRD9-GFP (Homo sapiens, UniProt Q9H8M2)
T1 construct: CHYSEL (2A cis-acting hydrolase element) remnant after GFP; mCherry is split off as a separate protein (C); expressed in transfected cells; host or cells: HEK293A cells (Invitrogen R70507), lentiviral transduction with pLenti6-BRD9-GFP-CHYSEL-mCherry, blasticidin selection
T1 sequence (Q9H8M2 1-597): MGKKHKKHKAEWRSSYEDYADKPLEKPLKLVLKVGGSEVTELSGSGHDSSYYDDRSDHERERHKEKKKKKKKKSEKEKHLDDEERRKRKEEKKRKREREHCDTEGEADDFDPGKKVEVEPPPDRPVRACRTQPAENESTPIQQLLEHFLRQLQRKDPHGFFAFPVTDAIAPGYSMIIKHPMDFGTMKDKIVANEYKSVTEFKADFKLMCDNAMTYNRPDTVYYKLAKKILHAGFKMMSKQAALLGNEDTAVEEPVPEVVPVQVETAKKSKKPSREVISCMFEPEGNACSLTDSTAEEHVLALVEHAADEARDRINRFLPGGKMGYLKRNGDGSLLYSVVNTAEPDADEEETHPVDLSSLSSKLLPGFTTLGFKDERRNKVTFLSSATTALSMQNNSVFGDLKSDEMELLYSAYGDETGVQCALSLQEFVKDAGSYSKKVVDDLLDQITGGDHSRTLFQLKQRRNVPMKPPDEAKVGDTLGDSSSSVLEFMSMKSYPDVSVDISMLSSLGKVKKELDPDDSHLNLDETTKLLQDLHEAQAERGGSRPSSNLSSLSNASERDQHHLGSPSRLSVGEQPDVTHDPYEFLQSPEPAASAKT
Assay: BRD9-GFP protein abundance flow cytometry assay in HEK293A cells
Format: cell-based
Settings: HEK293A-BRD9-GFP-CHYSEL-mCherry cells; for BRD9 Deg Amax %: 24 h, % protein remaining at the concentration at which maximum degradation is seen; for DC50: 24 h at 37° C., 10-point 1:3 dilution, concentration at which 50% maximal degradation was observed
Procedure, shortened: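 HEK293A cells stably express bicistronic BRD9-GFP-CHYSEL-mCherry and received 24 h treatment at 37° C with a 10-point, 3-fold dilution series from […], in 0.1% DMSO and duplicate. Median GFP/mCherry ratio of 5,000 single cells by flow cytometry, normalized to mCherry-only cells (0%) and DMSO (100%), gave DC50 and Amax (% protein remaining).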

| Compound | BRD9 Deg Amax % [%] | DC50 [nM] |
| --- | --- | --- |
| CCCCn1cc(-c2cc(OC)c(CN3CCC(OC4CCN(CCn5cccc(CN6CCC(=O)NC6=O)c5=O)CC4)CC3)cc2OC)c2ccncc2c1=O [Compound D1, 1-((1-(2-(4-((1-(4-(2-butyl-1-oxo-1,2-dihydro-2,7-naphthyridin-4-yl)-2,5-dimethoxybenzyl)piperidin-4-yl)oxy)piperidin-1-yl)ethyl)-2-oxo-1,2-dihydropyridin-3-yl)methyl)dihydropyrimidine-2,4(1H,3H)-dione] | 14.78 | 16 |
| CCCCn1cc(-c2cc(OC)c(CN3CCC(OC4CCN(CCn5cccc(CN6CCC(=O)NC6=O)c5=O)CC4)CC3)c(OC)c2)c2ccncc2c1=O [Compound D2, 1-((1-(2-(4-((1-(4-(2-butyl-1-oxo-1,2-dihydro-2,7-naphthyridin-4-yl)-2,6-dimethoxybenzyl)piperidin-4-yl)oxy)piperidin-1-yl)ethyl)-2-oxo-1,2-dihydropyridin-3-yl)methyl)dihydropyrimidine-2,4(1H,3H)-dione] | 13.05 | 15 |
| CCCCn1cc(-c2cc(OC)c(CCN3CCC(OC4CCN(CCn5cccc(CN6CCC(=O)NC6=O)c5=O)CC4)CC3)cc2OC)c2ccncc2c1=O [Compound D3, 1-((1-(2-(4-((1-(4-(2-butyl-1-oxo-1,2-dihydro-2,7-naphthyridin-4-yl)-2,5-dimethoxyphenethyl)piperidin-4-yl)oxy)piperidin-1-yl)ethyl)-2-oxo-1,2-dihydropyridin-3-yl)methyl)dihydropyrimidine-2,4(1H,3H)-dione] | 17.62 | 47 |
| CCCCn1cc(-c2cc(OC)c(CCN3CCC(OC4CCN(CCn5cccc(CN6CCC(=O)NC6=O)c5=O)CC4)CC3)c(OC)c2)c2ccncc2c1=O [Compound D4, 1-((1-(2-(4-((1-(4-(2-butyl-1-oxo-1,2-dihydro-2,7-naphthyridin-4-yl)-2,6-dimethoxyphenethyl)piperidin-4-yl)oxy)piperidin-1-yl)ethyl)-2-oxo-1,2-dihydropyridin-3-yl)methyl)dihydropyrimidine-2,4(1H,3H)-dione] | 16.34 | 3 |
| Cn1cc(-c2cc(F)c(CN3CCC(OC4CCN(CCn5cccc(CN6CCC(=O)NC6=O)c5=O)CC4)CC3)cc2F)c2ccncc2c1=O [Compound E1, 1-((1-(2-(4-((1-(2,5-difluoro-4-(2-methyl-1-oxo-1,2-dihydro-2,7-naphthyridin-4-yl)benzyl)piperidin-4-yl)oxy)piperidin-1-yl)ethyl)-2-oxo-1,2-dihydropyridin-3-yl)methyl)dihydropyrimidine-2,4(1H,3H)-dione] | 19.40 | 6 |
| COc1cc(-c2cn(C)c(=O)c3cnccc23)c(OC)cc1CN1CCC(O[C@@H]2CCN(CCn3cccc(CN4CCC(=O)NC4=O)c3=O)C[C@H]2F)CC1 [Compound E2, 1-((1-(2-((3R,4R)-4-((1-(2,5-dimethoxy-4-(2-methyl-1-oxo-1,2-dihydro-2,7-naphthyridin-4-yl)benzyl)piperidin-4-yl)oxy)-3-fluoropiperidin-1-yl)ethyl)-2-oxo-1,2-dihydropyridin-3-yl)methyl)dihydropyrimidine-2,4(1H,3H)-dione] | 12.45 | 35 |
| CCCCn1cc(-c2ccc(O[C@H]3CC[C@@H](OC4CCN(C(=O)c5ccc(OC)c(N6CCC(=O)NC6=O)c5)CC4)CC3)cc2)c2ccncc2c1=O [Compound E3, 1-(5-(4-(((cis)-4-(4-(2-butyl-1-oxo-1,2-dihydro-2,7-naphthyridin-4 yl)phenoxy)cyclohexyl)oxy)piperidine-1-carbonyl)-2-methoxyphenyl)dihydropyrimidine-2,4(1H,3H)-dione] | 18.38 | 2 |
| CCCCCCn1cc(-c2cc(OC)c(CCN3CCC(OC4CCN(C(=O)c5ccc(OC)c(N6CCC(=O)NC6=O)c5)CC4)CC3)c(OC)c2)c2ccncc2c1=O [Compound E4, 1-(5-(4-((1-(4-(2-hexyl-1-oxo-1,2-dihydro-2,7-naphthyridin-4-yl)-2,6-dimethoxy-phenethyl)piperidin-4-yl)oxy)piperidine-1-carbonyl)-2-meth-oxyphenyl)dihydro-pyrimidine-2,4(1H,3H)-dione] | 19.61 | 34 |
| CCCn1cc(-c2ccc(CN3CC[C@@H](OC4CCN(C(=O)c5cccc(N6CCC(=O)NC6=O)c5)CC4)[C@H](F)C3)cc2)c(C)c(C)c1=O [Compound E5, 1-(3-(4-(((3R,4R)-1-(4-(4,5-dimethyl-6-oxo-1-propyl-1,6-dihydropyridin-3-yl)benzyl)-3-fluoropiperidin-4-yl)oxy)piperidine-1-carbonyl)phenyl)dihydropyrimidine-2,4(1H,3H)-dione] | 14.46 | 5 |
| CCCCn1cc(-c2cc(F)c(OC3CCN(CCC4CCN(C(=O)c5ccc(OC)c(N6CCC(=O)NC6=O)c5)CC4)CC3)c(F)c2)c2ccncc2c1=O [Compound E6, 1-(5-(4-(2-(4-(4-(2-butyl-1-oxo-1,2-dihydro-2,7-naphthyridin-4-yl)-2,6-difluorophenoxy)piperidin-1-yl)ethyl)piperidine-1-carbonyl)-2-methoxyphenyl)dihydropyrimidine-2,4(1H,3H)-dione] | 21.29 | 9 |
| CCCn1cc(-c2cc(OC)c(CCN3CC[C@@H](OC4CCN(CCn5cccc(CN6CCC(=O)NC6=O)c5=O)CC4)[C@H](F)C3)c(OC)c2)c(C)c(C)c1=O [Compound E7, 1-((1-(2-(4-(((3R,4R)-1-(4-(4,5-Dimethyl-6-oxo-1-propyl-1,6-dihydropyridin-3-yl)-2,6-dimethoxyphenethyl)-3-fluoropiperidin-4-yl)oxy)piperidin-1-yl)ethyl)-2-oxo-1,2-dihydropyridin-3-yl)methyl)dihydropyrimidine-2,4(1H,3H)-dione] | 18.57 | 4 |
| CCCn1cc(-c2cc(F)c(CCN3CCC(OC4CCN(C(=O)c5ccc(OC)c(N6CCC(=O)NC6=O)c5)CC4)CC3)c(F)c2)c(C)c(C)c1=O [Compound E12, 1-(5-(4-((1-(4-(4,5-dimethyl-6-oxo-1-propyl-1,6-dihydropyridin-3-yl)-2,6-difluorophenethyl)piperidin-4-yl)oxy)piperidine-1-carbonyl)-2 methoxyphenyl)dihydropyrimidine-2,4(1H,3H)-dione] | 33.47 | 30 |
| CCCCn1cc(-c2ccc(CN3CCC(OC4CCN(C(=O)c5ccc(OC)c(N6CCC(=O)NC6=O)c5)CC4)CC3)cc2)c2ccncc2c1=O [Compound E13, 1-(5-(4-((1-(4-(2-butyl-1-oxo-1,2-dihydro-2,7-naphthyridin-4-yl)benzyl)piperidin-4-yl)oxy)piperidine-1-carbonyl)-2-meth-oxyphenyl)dihydro-pyrimidine-2,4(1H,3H)-dione] | 13.06 | 2 |
| CCCCn1cc(-c2cc(F)c(O[C@@H]3CCN(CCC4CCN(C(=O)c5ccc(OC)c(N6CCC(=O)NC6=O)c5)CC4)C[C@H]3F)c(F)c2)c2ccncc2c1=O [Compound E14, 1-(5-(4-(2-((3R,4R)-4-(4-(2-butyl-1-oxo-1,2-dihydro-2,7-naphthyridin-4-yl)-2,6-difluorophenoxy)-3-fluoropiperidin-1-yl)ethyl)piperidine-1-carbonyl)-2-meth-oxyphenyl)dihydro-pyrimidine-2,4(1H,3H)-dione] | 18.10 | 1 |
| CCCCCCn1cc(-c2cc(OC)c(CCN3CCC(OC4CCN(C(=O)c5ccc(F)c(N6CCC(=O)NC6=O)c5)CC4)CC3)c(OC)c2)c2ccncc2c1=O [Compound E15, 1-(2-fluoro-5-(4-((1-(4-(2-hexyl-1-oxo-1,2-dihydro-2,7-naphthyridin-4-yl)-2,6-dimethoxyphenethyl)piperidin-4-yl)oxy)piperidine-1-carbonyl)phenyl)dihydropyrimidine-2,4(1H,3H)-dione] | 19.85 | 17 |
| CCCCn1cc(-c2ccc(O[C@H]3CCN(CC4CCN(C(=O)c5ccc(OC)c(N6CCC(=O)NC6=O)c5)CC4)C[C@@H]3F)c(F)c2)c2ccncc2c1=O [Compound E16, 1-(5-(4-(((3S,4S)-4-(4-(2-butyl-1-oxo-1,2-dihydro-2,7-naphthyridin-4-yl)-2-fluorophenoxy)-3-fluoropiperidin-1-yl)methyl)piperidine-1-carbonyl)-2-meth-oxyphenyl)dihydro-pyrimidine-2,4(1H,3H)-dione] | 16.58 | 1 |
